Legend:
[1] = in vivo; cited from earlier work
[2] = test system: EGFR; experiment: EGFR expression and phosphorylation in xenograft tumors (immunohistochemistry, Western blot); type: in vivo, athymic (nude) mice
Protocol: FIG. 6B illustrates expression of EGFR and Akt. Tissue sections were obtained from human pancreatic cancer tumors growing in nude mice as described in FIG. 5, and stained for pEGFR and pAkt as described in Materials and Methods section (below). Middle, EGFR and Akt expression of pancreatic tumors from same crocetinic acid-treated and untreated control animals using Western Blot as described in FIG. 4B, was determined. Phophorylated (p-EGFR) and total protein of EGFR and phophorylated Akt and total Akt expressed as ratio between them normalized with b-actin was shown (bottom);
The immuno-Western blot analyses were the same as described earlier by Banerjee et al. (Reference 26). Briefly, MIA-PaCa-2 and BxPC-3 cells following treatment with or without crocetin and tumor samples were homogenized. […] Protein concentration was measured by using the Comassie blue reagent assay (Pierce, Rockford, Ill.). […] The antigen-antibody reactions were detected with HRP-conjugated anti-rabbit or anti-mouse IgG for one hour in room temperature. Immunoreactions were visualized by the ECL ([…]) chemiluminescence reagent kit (Pierce, Rockford, Ill.) and relative expression of proteins were calculated by densitometric analyses using ID image Analysis Software version 3.6 (Eastman Kodak Company, Rochester, N.Y.). […]

[3] = test system: MIA-PaCa-2 xenograft tumor; experiment: Apoptosis in xenograft tumors (cleaved caspase 3, TUNEL, Bax/Bcl-2); type: in vivo, athymic (nude) mice
Protocol: FIG. 6C illustrates apoptosis. Top, tumor tissues were processed for Cleaved Caspase 3 immunohistochemistry. […] Caspase 3, Bax and Bcl-2 (middle) expressions of pancreatic tumors from same crocetinic acid-treated and control animals using Western Blot were carried out and Bax/Bcl-2 ratio was also determined (bottom). Columns, mean from six different animals; bars, SD (B and C). *, P<0.05; **, P<0.001 versus untreated control (Student's t test);
To explore whether the regression of tumor growth by crocetin is due to inhibition of proliferation, apoptotic cell death or both, we first evaluated PCNA (proliferating cell nuclear antigen) expression and then EGFR expression in tumors using histochemical analysis. […] Next, apoptosis by TUNEL assay was investigated in the tumors of mice treated with or without crocetin.

[4] = test system: human cells; conditions: cited from earlier work
[5] = test system: Panc-1 cells; experiment: Click-it EdU microplate proliferation assay; type: cell-based, human; conditions: for potency in proliferation assay relative to crude crocetin: Panc-1, 48-72 hours, versus CC; for inhibiting proliferation: Panc-1 cells
Protocol: (§1) Pancreatic cancer cells were plated at desired density onto 96-well corning tissue culture plates. After 24 hours, cells were treated for 72 hours with different concentrations (1-50 μM) of purified crocetin and crude/commercial crocetin. Cells were labelled with Click-it EdU and were fixed. Then fixed cells were incubated with anti-Oregon Green antibody conjugated to horseradish peroxidase and measured flurescent product (excitation/emission˜568/585).
[…] We have also used higher doses (25, 50 and 100 μM) in this experiment and it needs about 50-100 concentration of CC for inhibition of proliferation and increase of apoptosis at the level of 1 and 10 μm of PC. Treated cells were then labeled with Brdu and cells were assayed by Invitrogen Click-it Edu fluorimetric microplate proliferation kit and apoptosis assay kit.

[6] = test system: BxPc3 cells; experiment: Apoptosis assay in BxPC3 cells; type: cell-based, human; conditions: comparison to commercial crocetin
Protocol: (§2) FITC Annexin V and PI for flow cytometry provide a rapid and convenient assay for apoptosis. Treated and control cells were incubated with annexin V conjugate and propidium iodide (PI). Then cells were deposited onto slides for fluorescence microscopy. Cells were also used for flow cytometry analysis for live, apoptotic and dead cells using annexin V conjugated to green-fluorescent FITC dye and propidium iodide (PI). Propidium iodide stains necrotic cells with red fluorescence whereas green FITC dye stains apoptotic cells.

[7] = test system: pancreatic CSCs (pancospheres); experiment: Pancospheroid formation assay; type: cell-based; conditions: dose dependent, 0, 1, 5, 10, 20 μM
Protocol: FIG. 7C illustrates spheroid formation assay. Stemness pancreatic cancer cells ware determined using spheroid assay in PC versus CC in different concentrations (0, 1, 5, 10, 20 μM); and
Spheroids were prepared as previously described (Reference 17). Briefly, 1000 cells/well in DMEM/F12 (Invitrogen, France) supplemented with EGF (20 ng/ml, Invitrogen) and B27 (1×, Invitrogen) were distributed in ultra-low attachment plates 6 well plates. Plates were placed in a humidified atmosphere of 5% CO2 at 37° C. Numbers of pancosphers formation, after 6-8 days culture, were counted under a light microscopy and quantified by Celigo software.

[8] = test system: pancreatic cancer cells; experiment: Cytotoxicity against pancreatic cancer cells; type: cell-based; conditions: dose- and time-dependent
Protocol: The human pancreatic adenocarcinoma cell lines MIA-PaCa-2, BxPC3, Capan-1 and ASPC-1 were obtained from the American Type Culture Collection (ATCC, Manassas, Va., USA) and grown in Dulbecco's modified Eagles medium (DMEM, Sigma Chemical Co, St Louis, Mo.) supplemented with 1 mM sodium pyruvate (Fisher Chemical Company), 100 U/ml of penicillin and 100 U/ml of streptomycin (Sigma Chemical Co, St Louis, Mo.) and 10% FBS (Hyclone, Road Logan, Utah) at 37° C. in a humidified tissue culture incubator containing 5% CO2 and 95% air. ˜70% confluent cells were treated with different concentrations (1-50 μM) of purified crocetinic acid and commercial crocetin for 72 h.

[9] = test system: Panc-1 cells; experiment: Migration of Panc-1 cells in Bowden chamber; type: cell-based, human; conditions: 1 and 10 μM, 24 hours, compared with CC
Protocol: FIG. 4A illustrates effect of purified crocetin (PC) and crude crocetin (CC) on migration of Panc-1 cells. Panc-1 cells were incubated with PC and CC at concentrations of 1 and 10 μM in Bowden chamber for 24 hours and migration was studied.

[10] = test system: Panc-1 cells; experiment: Apoptosis assay (apoptosis kit, Annexin V-FITC flow cytometry and fluorescence microscopy); type: cell-based, human; conditions: for potency in apoptosis assay relative to crude crocetin: Panc-1, 48-72 hours, versus CC; for stimulating apoptosis: Panc-1 cells
Protocol: as §2
We treated Panc-1 pancreatic cancer cells with either purified crocetin or PC (fraction 5 of FIG. 2A) derived from alkaline treatment or crude commercial crocetin or CC (1 and 10 μM concentrations) for 48-72 hours. We have also used higher doses (25, 50 and 100 μM) in this experiment and it needs about 50-100 concentration of CC for inhibition of proliferation and increase of apoptosis at the level of 1 and 10 μm of PC. Treated cells were then labeled with Brdu and cells were assayed by Invitrogen Click-it Edu fluorimetric microplate proliferation kit and apoptosis assay kit.

[11] = test system: BxPc3 cells; experiment: Proliferation assay in BxPC3 cells; type: cell-based, human; conditions: comparison to commercial crocetin
Protocol: as §1

[12] = test system: Bax/Bcl-2; experiment: Western blot of Bax/Bcl-2 in Panc-1 cells; type: cell-based, human; conditions: Panc-1, Western blot
Protocol: (§3) FIG. 4B illustrates effect of purified crocetin (PC) and crude crocetin (CC) on EGFR (epidermal growth factor receptor), Akt signaling and Bax/Bcl-2 on Panc-1 cells.
(§4) The immuno-Western blot analyses were the same as described earlier by Banerjee et al. (Reference 26). Briefly, MIA-PaCa-2 and BxPC-3 cells following treatment with or without crocetin and tumor samples were homogenized. Then, both cell and tumor lysates were spun at 18000 g for 1 hr at 4° C., and the supernatants were collected for immunodetection. Protein concentration was measured by using the Comassie blue reagent assay (Pierce, Rockford, Ill.). Equal amount of protein were resolved in 10% SDS-PAGE, transferred onto nitrocellulose membranes. Membranes were blocked with super block (Pierce, Rockford, Ill.) followed by incubation with appropriate primary antibodies at 4° C., overnight. The antigen-antibody reactions were detected with HRP-conjugated anti-rabbit or anti-mouse IgG for one hour in room temperature. Immunoreactions were visualized by the ECL ([…]) chemiluminescence reagent kit (Pierce, Rockford, Ill.) and relative expression of proteins were calculated by densitometric analyses using ID image Analysis Software version 3.6 (Eastman Kodak Company, Rochester, N.Y.).

[13] = test system: MIA-PaCa-2 xenograft tumor; experiment: Pancreatic cancer xenograft tumor growth in athymic nude mice; type: in vivo; conditions: 0.5 mg/kg, oral, 0 to 21 days, in comparison to control
Protocol: FIG. 5 illustrates pancreatic cancer xenograft tumor growth in athymic (nude) mice. […] The tumor size was measured (right) from the start date of crocetin treatment (0 day) to end date of crocetin treatment (21 days) in comparison to control (no treatment). Number of animals is 5 in the control and treated group;
MIA-PaCa-2 cells (2.5×10^6) were injected into the right hind leg of each mouse for the development of tumor. The mice were divided into two groups (6 mice per group) with a control group and crocetin treatment group. After development of palpable tumor, the tumor size was measured twice in a week. When tumors are well established (approximately 0.34 cm^3); treatment was started. The treatment group received crocetin at 0.5 mg/kg/day orally dissolved in 15 ml of peptamen for 12 hours during dark for 30 days and the dose is in agreement with other investigators (References 14, 17, 20 and 27). Tumor size was monitored twice weekly, and its volume calculated as […], where a=length and b=width. Control group received only peptamen. The mice were given solid food during light time following liquid peptamen diet at dark. All mice were sacrificed after 30 days following treatment and tumors were taken out and stored at −80° C. […]

[14] = test system: Sonic Hedgehog signaling pathway; experiment: Western blot of Sonic Hedgehog signaling pathway proteins and target genes; type: cell-based
Text: FIG. 7A illustrates western blots of onic Hedgehog signaling pathways proteins (sonic hedgehog, Gli-1, SUFU, Smoothened with beta-actin) expressions in treated lanes of I (CC), 2 (PC #5), 3 (PC #3) and 4 (PC #1).
FIG. 7B illustrates sonic hedgehog target genes: Patched, p21, cyclin D1 with actin treated by CC (Lane 1) and PC #5 (Lane 2), PC #3 (Lane 3) and PC #1 (Lane 4).
as §4

[15] = test system: Akt; experiment: Western blot of Akt signaling in Panc-1 cells; type: cell-based, human; conditions: 10 mM, listed as PC
Protocol: as §3, §4

[16] = test system: EGFR; experiment: Western blot of EGFR (phosphorylated and total) in Panc-1 cells; type: cell-based, human; parameters: dose or concentration left out as unconfirmed; conditions: Panc-1, compared with CC
Protocol: as §3, §4

[17] = test system: DCLK-1; experiment: Western blot of DCLK1 expression; type: cell-based, human; parameters: dose or concentration left out as unconfirmed; conditions: Mia-PaCa2 cells
Protocol: FIG. 7D illustrates DCLK1 expression. Western blot analysis of DCLK1 after treatment of Mia-PaCa2 cells treated with 10 mM of CC and PC of #5, #3 and #1 HPLC fractions.
as §4

[18] = test system: PCNA; experiment: PCNA histochemical analysis of xenograft tumor tissue; type: in vivo, athymic (nude) mice; conditions: versus untreated
Protocol: FIG. 6A illustrates expression of PCNA (proliferating cell nuclear antigen). Cell proliferation in tumor tissues, obtained from athymic mice as depicted in FIG. 5, was evaluated by staining for PCNA using histochemical analysis.
Immunohistochemical analysis was performed according to our previous described method (27) using Zymed broad range immunohistochemical kits (Zymed Laboratories, CA). Tumor tissue samples were fixed in 4% buffered formalin and embedded in paraffin. The serial sections of 5 μm were cut. The tissue sections were deparaffinized and were hydrated in different concentrations of ethanol (i.e. 100%, 90%, 70%, and 50%). Endogenous peroxidase activity was blocked at room temperature by incubating in hydrogen peroxide in methanol (1:9). Slides were washed with PBS (phosphate buffered saline) and nonspecific binding was blocked by blocking solution for 10 min. The sections were incubated with respective primary antibody in a humidified chamber at 4° C. overnight. The tissues were incubated with biotynylated secondary antibody (Zymed kit). The slides were then incubated with HRP (horseradish peroxidase) linked enzyme conjugate for 10 min. Positive reactions were visualized by incubating slides with stable 3,3′-diaminobenzidine (DAB) solution (Zymed kit) and counterstained with haematoxylin. The slides were dehydrated and mounted in permount for microscopic examination.

[19] = in comparison to commercial crocetin

For `CC(/C=C/C=C(\C)C(=O)O)=C\C=C\C=C(C)\C=C\C=C(/C)C(=O)O` [crocetin], the LD50 [1] is given as 2000 mg/kg, the “EGFR activity (ratio of phosphorylated and unphosphorylated form) in tumors” value [2] is given as “significantly impaired” and the “EGFR expression and phosphorylation in tumors” value ([2]; versus untreated) is given as “significantly reduced”. For the same compound, the “ratio of Bax/Bcl-2 in pancreatic tumors” value ([3]; xenograft tumors, Western blot) was “significantly increased” and the “TUNEL assay positive cells in tumors” value ([3]; xenograft tumors, versus untreated) was “elevated markedly”.

For `CC(C=CC=C(C)C(=O)O)=CC=CC=C(C)C=CC=C(C)C(=O)O` [crocetinic acid], the “toxicity to human cells” value [4] is given as “relatively nontoxic”, the inhibition in proliferation ([5]; 1 µM, compared with CC) is given as “highly potent inhibition” and the “potency in proliferation assay relative to crude crocetin” value ([5]; listed as #5) is given as 50 times. The “potency in proliferation assay relative to crude crocetin” value ([5]; listed as PC) was 50 times, the “potency in proliferation assay relative to crude crocetin” value ([5]; listed as purified crocetin) was “about 50 times” and the inhibiting proliferation [5] was “significantly inhibited”. For the same compound, the inhibiting proliferation ([5]; listed as #5) was “promising effect”, the stimulation of apoptosis [6] was “stimulated apoptosis” and the “number and size of primary and secondary pancospheres (spheroid formation)” value [7] was “decreased”. The “number and size of primary and secondary pancospheres (spheroid formation)” value ([7]; listed as #5) was “significant inhibition”, the cytotoxicity [8] was “significant cytotoxicity” and the migration [9] was “significantly inhibited”. For the same compound, the apoptosis ([10]; 1 µM, compared with CC) was “increase”, the “potency in apoptosis assay relative to crude crocetin” value ([10]; listed as #5) was 50 times and the “potency in apoptosis assay relative to crude crocetin” value ([10]; listed as PC) was 50 times. For the same compound, the “potency in apoptosis assay relative to crude crocetin” value ([10]; listed as purified crocetin) was “about 50 times”, the stimulating apoptosis [10] was “stimulated apoptosis” and the stimulating apoptosis ([10]; listed as #5) was “promising effect”. The “apoptosis by flow cytometry and fluorescence microscopy” value ([10]; lower doses) was “significant increase”, the inhibition of proliferation [11] was “significantly inhibited” and the Bax/Bcl-2 ratio [12] was “increase”. For the same compound, the Bcl-2 [12] was “decrease”, the tumor growth [13] was “significantly inhibited” and the Gli1 expression ([14]; Western blot) was “inhibited”. The SUFU expression ([14]; Western blot) was “inhibited”, the smoothened expression ([14]; Western blot) was “inhibited” and the “cyclin D1 expression” value ([14]; Western blot, target protein) was “inhibited”. The patched expression [14, 19] was “increased expression”, the “sonic hedgehog (Shh) expression” value [14, 19] was “significantly inhibited” and the patched expression ([14]; in comparison to commercial crocetin, listed as 5) was “increased”. The “Akt expression and phosphorylation” value [15] was “significantly inhibited”, the EGFR phosphorylation [16] was “significantly inhibited” and the DCLK-1 expression [17] was “significantly inhibited”. The DCLK-1 expression ([17]; listed as 5) was “reduction”, the “PCNA expression in tumors” value [18] was “significantly decreased” and the “apoptosis by cleaved caspase 3 immunohistochemistry in tumors” value ([3]; daily treatment, versus vehicle) was “Increased apoptosis”.
